In data set [1] the test system is AZT-sensitive strain HIV-1 018a.
The test system of data set [2] is AZT-resistant strain HIV-1 018c. As to conditions: PBMC, AZT-resistant HIV-1 018c.
For data set [3] the test system is unchanged. Description: microbe, parasite or virus in culture. As to conditions: Human immunodeficiency virus 1, PBMC, 96 h, read-out: Median effective concentration (EC50), HIV-1 P24 antigen.
Data set [4] has as its system HIV-1 IIIB. The data set is described as follows: HIV-1 P24 antigen inhibition in MT-4 culture.
Experimental: MT-4 cell suspension was counted, then 100 μl of suspension (2×10^5 cells/ml) was seeded into 96-well cell culture plate, 50 μl liquor of 2× diluted medicament or 4-5× diluted positive medicament AZT (8 concentrations) was added, respectively, and 50 μl virus suspension with proper titer was add concurrently. Each dilution was repeated in 3 wells and cell control group and virus control group were established. They were incubated at 37° C., 5% CO2 saturated humidity incubator and the cytopathy was observed everyday. On the fourth day after administration (96 hours), the supernatants were sucked out and stored at −20° C. for measuring HIV-1-P24 antigen titer. Accordingly, the inhibition effect of medicament could be calculated, and the cells were dyed with MTT to measure the cytotoxicity.
The medicated cell supernatants infected with MT-4 were diluted after being thawed. HIV-1 P24 titer was measured according to the operation procedure described in HIV-1 P24 antigen kit.
[formula] 2.2.2 Reed & Muench Method for Calculating CC50 and EC50 of Medicament in Cell Culture
[formula] 2.2.3. Calculation Method of Selection Index (SI) of HIV-1 P24 Antigen in Cell Culture SI=CC50/EC50 3.
Data set [5] is described as follows: cytotoxicity by MTT in HIV-infected PBMC culture. The note with it: human, Median cytotoxicity concentration (CC50).
Experimental: (§1) 10 μl MTT dye (5 mg/ml) was added to each well, and then incubated at 37° C., 5% CO2 saturated humidity incubator for 4 hours. 100 μl 50% DMF-17% Triton X-100 destainer was added to each well and the mixtures were kept at 37° C. overnight. Then OD570nm values were measured at 570 nm with a luminometer to calculate the median cytotoxicity concentration of medicament (CC50).
(§2) The fresh normal human venous blood was taken and PBMC was separated using FiColl separation solution. The 1.5×10^5 cells/ml suspension prepared with the culture fluid containing PHA was seeded into the culture bottle and incubated in the incubator (37° C., 5% CO2) for 72 hours. The cells were collected with cell scrapers then were infected with the 10^−2 viral liquid of AZT-sensitive (018a) or AZT-resistant (018c) viral strain. After absorption for 2 hours, the non-absorbed viruses were washed with serum-free 1640 culture medium. The infected cells were prepared into 1×10^6 cells/ml with the culture fluid, and then were seeded into the 96-well culture board in 100 μl/well. At the same time, 100 μl liquor of 2× diluted AKJ-2 or 5× diluted positive control medicament AZT with different concentrations was added. The cell control group and virus control group were established. Four days (96 hours) after incubating under 37° C., 5% CO2, the supernatants were sucked out and stored at −20° C. to measure HIV-1-P24 antigen titer and calculate the inhibition effect of the medicament. The cells were dyed with MTT to measure the cytotoxicity.
For data set [6], the system named is AZT-sensitive strain HIV-1 018a. Description: HIV-1 P24 antigen inhibition in PBMC, AZT-sensitive strain.
In data set [7] the test system is HIV-1 IIIB. Description: HIV-1 P24 antigen inhibition in chronically infected H9 cells.
Experimental: HIV-1 P24 antigen titer was measured according to the operation procedures stated in HIV-1 P24 antigen kit.
100 μl (2×10^5 cells/ml) of H9 cells suspension was seeded into 96-well cell culture plate. Then, 100 μl liquor of 2× diluted medicament or 4-5× diluted positive AZT (8 concentrations) was added. Each dilution was repeated in three wells. The cell control group was established. The cells were incubated in the incubator (37° C., 5% CO2, saturated humidity) and the cytopathy was observed everyday. Four days (96 hours) after administration, the supernatants were sucked out and stored at −20° C. to measure HIV-1-P24 antigen titer. The inhibition effect of the medicament was determined. The cells were dyed with MTT to measure the cytotoxicity.
2.2.2 Reed & Muench Method for Calculating CC50 and EC50 of Medicament in Cell Culture
Calculation Method of Selection Index (SI) of HIV-1 P24 Antigen in Cell Culture SI=CC50/EC50 3.
A further data set can be described thus: solubility. It counts as physicochemical.
The next data set has as its system human T lymphocytes MT-4. The data set is described as follows: cytotoxicity by MTT in MT-4 culture. As to conditions: MT-4 culture with HIV-1 IIIB, 96 hours.
Data set [8] has as its system human peripheral blood mononuclear cell (PBMC). The data set is described as follows: cytotoxicity by MTT in HIV-infected PBMC culture. The note with it: 96 hours.
Experimental: as §1, §2
For data set [9], the system named is human T lymphocytes H9 chronically infected with HIV-1 IIIB. The data set is described as follows: cytotoxicity by MTT in H9 cells chronically infected with HIV-1 IIIB. As to conditions: H9 cell chronically infected with HIV-1 IIIB, 96 hours.
A further data set has as its system mycoplasma pneumoniae. Description: bacteriostatic effect on mycoplasma pneumoniae. Format: cell-based.
Another data set deals with candida and cryptococcus. The data set is described as follows: in vitro antifungal test, candida and cryptococcus. Format: cell-based.
Another data set concerns dermatophyte. Description: in vitro antifungal test, dermatophyte. It counts as cell-based.
The subject of another data set is Pseudallescheria boydii. Description: in vitro antifungal test, Pseudallescheria boydii. Format: cell-based.
Data set [10] relates to aspergillus fumigatus, cryptococcus and red trichophyton. The data set is described as follows: in vitro antifungal test, aspergillus fumigatus, cryptococcus and red trichophyton. Format: cell-based.
Data set [11] has as its system Staphylococcus epidermidis. Description: comparative MIC experiment, Staphylococcus epidermidis. Format: cell-based.
The subject of a further data set is Serratia marcescens. Description: comparative MIC experiment, Serratia marcescens. Format: cell-based.
A further data set has as its system Bacteroid. The data set is described as follows: comparative MIC experiment, Bacteroid. Format: cell-based.
Another data set concerns Candida albicans. The data set is described as follows: comparative MIC experiment, Candida albicans. Format: cell-based.
Setting [12] is: PBMC infected with AZT-resistant HIV-1 018c.
Setting [13] is: PBMC infected with AZT-sensitive HIV-1 018a.

Values after ≈ are worked out from the molar mass of the structure shown. Where two headings read alike, the source gives them in different places.

A word on the CC50: it is the concentration giving 50% cytotoxicity. The low end stands for greater toxicity to the cells, the high end for lower toxicity to the cells. For `Cc1cn([C@H]2C[C@H](N=[N+]=[N-])[C@@H](CO)O2)c(=O)[nH]c1=O` [AZT, Zidovudine, reference compound], the “Selection index (CC50/EC50)” value turned out to be 10275.78 ± 1530.22 in [1]; 1895.40 ± 479.53 in [2]; 1808.33 ± 723.07 in the data set on HIV-1 IIIB [4] (MT-4, HIV-1 IIIB); 83.65 ± 37.96 in the data set with HIV-1 IIIB [7] (H9 cell chronically infected with HIV-1 IIIB). Further, the EC50 in data set [3] is 0.05 ± 0.01 µg/mL (≈ 0.187 µM); in the data set with HIV-1 IIIB [4] (Human immunodeficiency virus 1, IIIB, 96 h, read-out: Median effective concentration (EC50), HIV-1 P24 antigen), 0.09 ± 0.003 µg/mL (≈ 0.337 µM); in data set [6] (Human immunodeficiency virus 1, PBMC, 96 h, read-out: Median effective concentration (EC50), HIV-1 P24 antigen), below 0.0064 µg/mL; in the data set on HIV-1 IIIB [7] (Human immunodeficiency virus 1, IIIB, H9, 96 h, read-out: Median effective concentration (EC50), HIV-1 P24 antigen) it was 1.08 ± 0.24 µg/mL (≈ 4.04 µM). Moreover, the values for the cytotoxic concentration (CC50) at 96 h in data set [5] (setting [12]) and in data set [5] (setting [13]) were 88 ± 15.5 µg/mL (≈ 329 µM) and 77.2 ± 20.9 µg/mL (≈ 289 µM), respectively.

As for `CC(=O)O[C@H](CC=C(C)C)C1=CC(=O)c2c(O)ccc(O)c2C1=O` [acetylshikonin], in “solubility” (DMSO), the “solubility in DMSO” value was “soluble”. The solubility in water entry in the data set “solubility” (water) is “insoluble”. The “Median effective concentration (EC50), HIV-1 P24 antigen” value is above 1.25 ± 0 µg/mL in data set [2] (96 hours); 0.20 ± 0.03 µg/mL in the data set on HIV-1 IIIB [4] (MT-4, HIV-1 IIIB, 96 hours); 1.18 ± 0.03 µg/mL in [6] (PBMC, AZT-sensitive HIV-1 018a, 96 hours); above 0.25 ± 0 µg/mL in the data set with HIV-1 IIIB [7] (H9 cell chronically infected with HIV-1 IIIB, 96 hours). In addition, the “Median cytotoxicity concentration (CC50)” value in the data set on human T lymphocytes MT-4 is 0.49 ± 0.06 µg/mL; in data set [8] (setting [12]) it was 5.83 ± 0.38 µg/mL; in data set [8] (setting [13]), 7.69 ± 0.19 µg/mL; in data set [9], 1.77 ± 0.13 µg/mL. For the same compound, the “Selection index (CC50/EC50)” value with HIV-1 IIIB [4] (MT-4, HIV-1 IIIB) amounted to 2.45 ± 0.51; in [6] (PBMC, AZT-sensitive HIV-1 018a), 6.50 ± 0.08. In addition, the “inhibition effect on HIV-1 IIIB chronically-infected H9 cells” value in the data set with HIV-1 IIIB [7] (two lots of tests) is recorded as “no inhibition effect”.

With `CC[C@H]1OC(=O)[C@H](C)[C@@H](O[C@H]2C[C@@](C)(OC)[C@@H](O)[C@H](C)O2)[C@H](C)[C@@H](O[C@@H]2O[C@H](C)C[C@H](N(C)C)[C@H]2O)[C@](C)(O)C[C@@H](C)C(=O)[C@H](C)[C@@H](O)[C@]1(C)O` [erythrocin, reference compound], in the data set on mycoplasma pneumoniae (comparator), the “concentration of equivalent inhibitory effect” value was 0.1925 µg/mL.

The term MIC denotes the least concentration at which growth counts as inhibited. High values mean a less susceptible organism, low ones a more susceptible organism. In general, MIC90 refers to the lowest concentration that inhibits either 90% of growth or 90% of the strains tested, depending on the study. For the compound `CC(C)=CCC(OC(=O)C=C(C)C)C1=CC(=O)c2c(O)ccc(O)c2C1=O` (stereo not drawn) [β,β-dimethylacrylshikonin], the MIC against candida and cryptococcus is 2.08 to 33.3 µg/mL; against dermatophyte it was 4.16 to 8.32 µg/mL; in the data set with Pseudallescheria boydii, 4.16-8.32 μg/mi; in data set [10], 3.0625 to 250 µg/mL; in data set [11], 0.391 µg/mL (≈ 1.06 µM); against Serratia marcescens it was 0.781 µg/mL (≈ 2.11 µM). The MIC came out at 0.391 µg/mL (≈ 1.06 µM) against Bacteroid, 3.9062 µg/mL (≈ 10.5 µM) against Candida albicans and 2 µg/mL (≈ 5.4 µM) against mycoplasma pneumoniae. In addition, the MIC90 turned out to be 33.3 µg/mL (≈ 89.9 µM) with candida and cryptococcus; 4.16 µg/mL (≈ 11.2 µM) in the data set with dermatophyte.
